Reference: US4771060A, “Novel skin-whitening agent” (Teikoku Seiyaku Kabushiki Kaisha, priority 1986, dated 1988)

Assays:
[1] = test system: stains (chloasma) and pigmentations induced by inflammation; assay: Clinical test, oral pionine; type: in vivo, human; design: key to Findings on skin: -1: deepened; 0: not changed; +1: faded; +2: completely disappeared
Method: A hundred μg of pionine was orally administered to each of three patients having stains (chloasma) and each of three patients having pigmentations induced by inflammation, once a day when the patients were hungry. This test was continued for 6 months. The effect of pionine was evaluated and classified into four classes by the degree of color as follows:
-1: deepened, 0: not changed, +1: faded,
+2: completely disappeared.
Evaluation by the patients themselves is also mentioned therein. Meanwhile, a patch test as to known cosmetics which were used by the patients was made for all patients before the clinical test, and if the result was positive (i.e. the known cosmetics are […]), the use of the cosmetics was prohibited.

[2] = test system: tyrosinase derived from mushroom; assay: Direct effect on tyrosinase activity (L-DOPA substrate); type: biochemical
Method: The direct effect of pionine to tyrosinase activity was studied. 0.1 ml of a solution of pionine having various concentrations was mixed with 0.1 ml of 290 unit/ml solution of tyrosinase derived from mushroom (Sigma). […]

[3] = test system: tyrosinase; assay: Determination of tyrosinase activity in scales of treated goldfish; type: in vivo, goldfish (Ryukins); conditions: scales on 12th day, control 0.06
Method: (§1) Ryukins [a kind of goldfish (weighing 3-5 g, one group: 5 fish)] were fed in water containing 1 μg/l or 10 μg/l of pionine (No. 1 compound in the above Preparations) for 20 days. The goldfish were then transferred into a water bath filled with water containing 0.9% by weight of NaCl in order to induce melanism and fed for 12 days. As a control group, the fish were fed likewise except no active compound was used. The extent of surface melanism and the activity of tyrosinase in the group administered with pionine were compared with those of the control group.
As samples to be tested, scales were picked from goldfish of each of groups on 12th day. The samples were each homogenized with 1M phosphate buffer (pH 6.8) and centrifuged. As to the supernatant, tyrosinase was determined by a colorimetry according to the procedure of N. H. Horowitz and Pomerantz (cf. Method in Enzymology, XVIIA, 615-626).

[4] = test system: Black popeyed goldfish; assay: Action in normal black-goldfish; type: in vivo; conditions: 10 μg/l three times per week, after 12 weeks
Method: Black popeyed goldfish (each group: 5 fish) were fed in a water bath. In experimental group, pionine was added to the water bath in a concentration of 10 μg/l, three times per week. In the control group, no pionine was added.

[5] = Acute toxicity, oral, rats; conditions: rat, in vivo, suspension in 0.5% sodium carboxymethylcellulose, 7 days
Method: A suspension of pionine in a 0.5% sodium carboxymethylcellulose solution was orally administered to Wistar rats (weighing about 130 g, one group: ten animal) with a stomach sonde. The number of dead rats were counted for 7 days, and LD50 (g/kg) was calculated by van der Werden's method. […] Thus, it is clear that pionine is a compound having an extremely wide safety range, taking into account the above experimental results that it is effective in a concentration of 10 μg/l for preventing and treating melanism of goldfish.

[6] = test system: surface melanism in yellow goldfish; assay: Therapeutic effect on surface melanism in yellow goldfish; type: in vivo, goldfish (Ryukins); conditions: for goldfish returned to their original yellow surface color: after 12 weeks, control 0%
Method: Ryukins (weighing 3-5 g) were fed in a 0.9% NaCl aqueous solution for 12 days to induce surface melanism. The goldfish were grouped into five fish each. In two experiment groups, the fish were fed in a water bath for 12 weeks, during which pionine was add in an amount of 1 μg/l and 10 μg/l, respectively, three times per week. In the control group, the fish were fed in pure water. The recovery from surface melanism of the experiment groups was compared with that of control group.

[7] = test system: yellow goldfish; assay: Toxicity in yellow goldfish; type: in vivo; conditions: 5 mg/l in water for three days, ten yellow goldfish
[8] = test system: surface melanism in yellow goldfish; assay: Preventive effect on surface melanism in yellow goldfish; type: in vivo, goldfish (Ryukins); conditions: then 0.9% NaCl 12 days, 12th day, 5 fish, control 100%
Method: as §1

CCCCCCCN1C(C)=CSC1=Cc1scc(C)[n+]1CCCCCCC [pionine, 4,4'-dimethyl-3,3'-di-n-heptyl-2,2'-monomethinethiazolocyanine iodide]
patients with positive effect ([1]; 5/6 patients, 100 μg orally once a day, 6 months): 83%
Side effect ([1]; Run No. 1, 100 μg orally once a day): No
Evaluation by patients ([1]; Run No. 1, Chloasma): effective
Findings on skin ([1]; Run No. 1, Chloasma, 100 μg orally once a day, at 4th month): +2
Evaluation by patients ([1]; Run No. 2, Chloasma): not effective
Findings on skin ([1]; Run No. 2, Chloasma, 100 μg orally once a day, at 6th month): 0
Evaluation by patients ([1]; Run No. 3, Chloasma): effective
Findings on skin ([1]; Run No. 3, Chloasma, 100 μg orally once a day, at 5th month): +2
Findings on skin ([1]; Run No. 4, Pigmentation after inflammation, 100 μg orally once a day, at 3rd month): +2
Findings on skin ([1]; Run No. 5, Pigmentation after inflammation, 100 μg orally once a day, at 5th month): +2
Findings on skin ([1]; Run No. 6, Pigmentation after inflammation, 100 μg orally once a day, at 3rd month): +1
side effect in all patients ([1]; six patients, 100 μg orally once a day, 6 months): no side effect was observed
effect on tyrosinase activity ([2]; addition of 5×10^-2 to 10^-5 % of pionine): did not affect
tyrosinase inhibitory activity ([2]; direct effect, summary statement): no tyrosinase inhibitory activity
ΔOD (at 475 nm) ([2]; pionine 5 × 10^-2 %, 2 min., control 0.250): 0.248
ΔOD (at 475 nm) ([2]; pionine 5 × 10^-2 %, 5 min., control 0.540): 0.540
ΔOD (at 475 nm) ([2]; pionine 5 × 10^-2 %, 10 min., control 0.782): 0.786
ΔOD (at 475 nm) ([2]; pionine 5 × 10^-3 %, 2 min., control 0.250): 0.252
ΔOD (at 475 nm) ([2]; pionine 5 × 10^-3 %, 5 min., control 0.540): 0.544
ΔOD (at 475 nm) ([2]; pionine 5 × 10^-3 %, 10 min., control 0.782): 0.780
ΔOD (at 475 nm) ([2]; pionine 5 × 10^-4 %, 2 min., control 0.250): 0.252
ΔOD (at 475 nm) ([2]; pionine 5 × 10^-4 %, 5 min., control 0.540): 0.540
ΔOD (at 475 nm) ([2]; pionine 5 × 10^-4 %, 10 min., control 0.782): 0.784
ΔOD (at 475 nm) ([2]; pionine 5 × 10^-5 %, 2 min., control 0.250): 0.250
ΔOD (at 475 nm) ([2]; pionine 5 × 10^-5 %, 5 min., control 0.540): 0.538
ΔOD (at 475 nm) ([2]; pionine 5 × 10^-5 %, 10 min., control 0.782): 0.780
tyrosinase activity, ΔOD at 475 nm/mg protein/30 min ([3]; 1 μg/l group): 0.05 /mg protein/30 min
tyrosinase activity, ΔOD at 475 nm/mg protein/30 min ([3]; 10 μg/l group): 0.02 /mg protein/30 min
blackness of normal black goldfish versus control [4]: no differences were observed
LD50 at 168 h ([5]; female Wistar rats): 500 mg/kg
LD50 at 168 h ([5]; male Wistar rats): 470 mg/kg
goldfish returned to their original yellow surface color ([6]; 1 μg/l three times per week): 40%
goldfish returned to their original yellow surface color ([6]; 10 μg/l three times per week): 80%
recovery from surface melanism ([6]; 1 and 10 μg/l groups, within three weeks): not observed
abnormality [7]: no abnormality was observed
death of fish [7]: no fish was died
fish with surface melanism observed ([8]; 1 μg/l in water for 20 days): 40%
fish with surface melanism observed ([8]; 10 μg/l in water for 20 days): none
